Reference: patent US8633204B2 (Pfizer Inc., priority 2006, dated 2014)
Entries after “also recorded” stand apart in the source; their conditions may differ.

Assays:
PC3 tumor model = experiment: Mouse xenograft efficacy study, PC3; type: in vivo
Procedure: (§1) The in vivo efficacy of 2-amino-8-(trans-4-hydroxycyclohexyl)-6-(6-methoxypyridin-3-yl)-4-methylpyrido[2,3-d]pyrimidin-7(8H)-one (Compound 152) disclosed in Example 53 was examined in s.c. xenograft model. Human tumor cell lines PC3 (PTEN deletion)), U87MG (PTEN deletion) and SKOV3 (PI3Kα […]) were chosen for in vivo efficacy studies due to their different genetic background and relatively high levels of phospho AKT S473 signal. Cells were implanted in the hind flank of athymic mice and tumors grew in size to 100-200 mm^3 before daily oral treatment with Compound 152 was initiated. […] For all models tested 1 mg/kg was an efficacious dose.
(§2) Animal Care: Female and male athymic mice (6-8 weeks old) weighing ˜22 g were obtained from Charles River Laboratory. Animal were housed on a 12 h light/dark cycle in the Pfizer vivarium and all procedures are conducted in accordance with the Pfizer Institutional Animal Care and Use Committee (IACUC). Animals are provided free access to rodent chow and water ad libitum and maintained under clean room conditions. Prior to study start animals acclimate for at least 48 h.
(§3) Cell lines: All cell lines were cultured at 37° C. in humidified 5% CO2 incubator. U87 MG glioblastoma tumor cell line was obtained from American Type Culture Collection (ATCC) and cultured with DMEM supplemented with 15% FBS and 2 mM glutamine. PC3 prostate cancer cell line were obtained from National Cancer Institute and cultured in RPMI media supplemented with 10% FBS and 2 mM glutamine. SKOV3 ovarian cancer cells were obtained from ATCC and passaged multiple times through mice, and cultured in McCoy's 5A media supplemented with 10% FBS and 2 mM glutamine. All cell lines were tested by University of Missouri Research Animal Diagnostic Laboratory for known species of murine viruses and mycoplasma contamination.
(§4) Mouse Xenograft Models: U87MG (glioblastoma), PC3 (prostate cancer) and SKOV3 (ovarian cancer) cell lines in culture were harvested by trypsinisation. Briefly, 2.5−4×10^6 tumor cells were suspended in the medium used to culture each cell line without serum and implanted sub-cutaneously (s.c) into the hind flank region of mice on day 0. Daily treatment with Compound 152, formulated in 10% ethanol, 40% PEG and 50% sodium citrate buffer or vehicle alone commenced 10-14 d after implantation when average tumors were 100-200 mm^3 in size. Tumors were measured twice weekly and tumor volume was calculated as a product of (length×width^2)/2. Studies were typically terminated when the tumor in the vehicle treated animals reached a size of >1500 mm3 or when judged to adversely affect the well being of the animal. […] Where applicable, percent tumor regression for each group was calculated as 100×(tumor volumeinitial−tumor volumefinal)/(tumor volumeinitial). A cohort of 12 animals was used for each dose group for efficacy studies. A representative cohort of animals were sacrificed at the times indicated, tumors resected, and a blood sample taken from the cardiac left ventricle and immediately placed in a vial primed with heparin sulfate. Typically one half of the tumor was fixed in 10% neutral buffered formalin, paraffin embedded, and sectioned for immunohistochemistry. The other half was frozen in liquid nitrogen and later processed to generate cell lysates for target modulation studies.

U87MG tumor model = experiment: Mouse xenograft efficacy study, U87MG; type: in vivo; details: for Growth Inhibition (%): U87 MG glioma xenograft
Procedure: as §1, §2, §3, §4

[1] = tested on: phosphorylation of AKT on S473 in PC3 tumors; experiment: In vivo target modulation study, PC3 tumors; parameters: species or system mouse
Procedure: (§5) In vivo target modulation studies to determine the effect of Compound 152 treatment on the phosphorylation of AKT on S473 by ELISA and S6 on S235/S236 by IHC were performed. Resected tumors were frozen on dry ice and pulverized using the FAST PREP instrument (Qbiogene). Briefly, frozen tumors were placed in Fast Prep matrix tubes, cold lysis buffer [20 mM HEPES (pH 7.5), 150 mM NaCl, 1.0 mM sodium EDTA, 1% Triton X-100, 2.5 mM sodium pyrophosphate, 1 mM sodium orthovanadate, 1 μg/ml leupeptin, and 1 mM PMSF] was added and samples were centrifuged for 5 sec, mixed and process repeated two more times. Samples were centrifuged in a cold refrigerated Eppendorf centrifuge at 14,000 RPM for 20 min. Supernatant was collected and total and phosphoAKT (S473) protein levels determined by ELISA. The extent of phosphorylation in tumors resected from treated animals was compared with that in tumors resected from vehicle-treated animals at the same time point. Plasma samples, obtained by centrifuging individual blood samples at 3000×g for 5 min at 4° C. in an Eppendorf 5417R centrifuge, were stored at −80° C. until they could be analyzed for drug concentration. Briefly, plasma samples (50 μl) or Compound 152 standards in mouse plasma were mixed with acetonitrile […]) and injected onto a LC/MS/MS system where separation occurred on a C-18 SB phenyl (5 μM, 2.1×50 mm, Agilent) reverse-phase high-performance liquid chromatography column. The amount of inhibitor and the internal standard (0.5 μM buspirone) in each mouse plasma sample was quantified based on standard curves generated using known amounts of compound. […] Time course and dose response of in vivo target modulation and plasma inhibitor concentrations were determined post last dose at the end of the efficacy study described above and data are summarized in Table 4.

[2] = tested on: phosphorylation of AKT on S473 in SKOV3 tumors; experiment: In vivo target modulation study, SKOV3 tumors; parameters: species or system mouse
Procedure: as §5

[3] = tested on: phosphorylation of AKT on S473 in U87MG tumors; experiment: In vivo target modulation study, U87MG tumors; parameters: species or system mouse; details: for p-Akt/Akt(%): 1 h post last dose
Procedure: as §5

[4] = PC3 tumor model, daily oral treatment
[5] = U87MG tumor model, daily oral treatment

EC50 ([3]; Mus musculus, U-87 MG, read-out: EC50 plasma concentration for pAKT S473 target modulation): 24 nM
Compound: COc1ccc(-c2cc3c(C)nc(N)nc3n([C@H]3CC[C@H](O)CC3)c2=O)cn1 [Compound 152, 2-amino-8-(trans-4-hydroxycyclohexyl)-6-(6-methoxypyridin-3-yl)-4-methylpyrido[2,3-d]pyrimidin-7(8H)-one]
Growth Inhibition (%) (PC3 tumor model; PC3 prostate xenograft, 0.25 mg/kg/day oral): 45% | Growth Inhibition (%) (PC3 tumor model; PC3 prostate xenograft, 0.5 mg/kg/day oral): 62% | Growth Inhibition (%) (PC3 tumor model; PC3 prostate xenograft, 1 mg/kg/day oral): 89% | Regression (%) (PC3 tumor model; PC3 prostate xenograft, 2 mg/kg/day oral): 19% | anti-tumor efficacy (PC3 tumor model; [4]): dose-dependent anti-tumor efficacy; also recorded: regression | efficacious dose (PC3 tumor model; [4]): 1 mg/kg | Growth Inhibition (%) (U87MG tumor model; 0.1 mg/kg/day oral): 18% | Growth Inhibition (%) (U87MG tumor model; 0.3 mg/kg/day oral): 56% | Growth Inhibition (%) (U87MG tumor model; 1.0 mg/kg/day oral): 76% | anti-tumor efficacy (U87MG tumor model; [5]): dose-dependent anti-tumor efficacy; also recorded: growth inhibition | efficacious dose (U87MG tumor model; [5]): 1 mg/kg | p-Akt/Akt(%) ([1]; PC3, 0.25 mg/kg, 3 h post last dose): 42 ± 14% | p-Akt/Akt(%) ([1]; PC3, 0.25 mg/kg, 7 h post last dose): 82 ± 18% | p-Akt/Akt(%) ([1]; PC3, 0.25 mg/kg, 24 h post last dose): 137 ± 23% | p-Akt/Akt(%) ([1]; PC3, 0.5 mg/kg, 3 h post last dose): 32 ± 4% | p-Akt/Akt(%) ([1]; PC3, 0.5 mg/kg, 7 h post last dose): 38 ± 5% | p-Akt/Akt(%) ([1]; PC3, 0.5 mg/kg, 24 h post last dose): 107 ± 6% | p-Akt/Akt(%) ([1]; PC3, 1 mg/kg, 3 h post last dose): 23 ± 10% | p-Akt/Akt(%) ([1]; PC3, 1 mg/kg, 7 h post last dose): 27 ± 9% | p-Akt/Akt(%) ([1]; PC3, 1 mg/kg, 24 h post last dose): 113 ± 15% | p-Akt/Akt(%) ([1]; PC3, 2 mg/kg, 3 h post last dose): 21 ± 5% | p-Akt/Akt(%) ([1]; PC3, 2 mg/kg, 7 h post last dose): 17 ± 7% | p-Akt/Akt(%) ([1]; PC3, 2 mg/kg, 24 h post last dose): 78 ± 9% | inhibition of pAKT at S473 ([1]; PC3 tumors in vivo): dose dependent inhibition | p-Akt/Akt(%) ([2]; SKOV3, 0.5 mg/kg, 3 h post last dose): 30 ± 3% | p-Akt/Akt(%) ([2]; SKOV3, 0.5 mg/kg, 7 h post last dose): 55 ± 4% | p-Akt/Akt(%) ([2]; SKOV3, 0.5 mg/kg, 24 h post last dose): 147 ± 21% | p-Akt/Akt(%) ([2]; SKOV3, 1 mg/kg, 3 h post last dose): 27 ± 6% | p-Akt/Akt(%) ([2]; SKOV3, 1 mg/kg, 7 h post last dose): 48 ± 17% | p-Akt/Akt(%) ([2]; SKOV3, 1 mg/kg, 24 h post last dose): 124 ± 10% | p-Akt/Akt(%) ([2]; SKOV3, 2 mg/kg, 3 h post last dose): 23 ± 5% | p-Akt/Akt(%) ([2]; SKOV3, 2 mg/kg, 7 h post last dose): 30 ± 13% | p-Akt/Akt(%) ([2]; SKOV3, 2 mg/kg, 24 h post last dose): 126 ± 20% | inhibition of pAKT at S473 ([2]; SKOV3 tumors in vivo): dose dependent inhibition | p-Akt/Akt(%) ([3]; U87, 0.1 mg/kg): 44% | p-Akt/Akt(%) ([3]; U87, 0.3 mg/kg): 27% | p-Akt/Akt(%) ([3]; U87, 1 mg/kg): 11% | inhibition of pAKT at S473 ([3]; U87MG tumors in vivo): dose dependent inhibition
